Measured values reported in ChEMBL document CHEMBL3792356, “Discovery of molluscicidal and cercaricidal activities of 3-substituted quinazolinone derivatives by a scaffold hopping approach using a pseudo-ring based on the intramolecular hydrogen bond formation” (Eur J Med Chem, 2016).
In brackets after ≈: the same amount, converted by molar mass.

What was measured:
Schistosoma japonicum = experiment: Cercaricidal activity against Schistosoma japonicum infected in Oncomelania hupensis measured after 120 mins by colour television microscopy; assay type: functional; details: for LC50: Schistosoma japonicum, 2 h
Oncomelania hupensis = experiment: Molluscicidal activity against Oncomelania hupensis measured after 24 hrs; assay type: functional; details: for LC50: Oncomelania hupensis, 24 h
[1] = Toxicity in tadpole assessed as lethality at 2.5 ppm measured after 72 hrs; assay type: organism-based; details: anura, in vivo
[2] = Toxicity in tadpole assessed as lethality at 10 ppm measured after 12 hrs; assay type: organism-based; details: anura, in vivo
[3] = Toxicity in tadpole assessed as lethality at 2.5 ppm measured after 24 hrs; assay type: organism-based; details: anura, in vivo
[4] = Toxicity in tadpole assessed as lethality at 0.3125 ppm measured after 48 hrs; assay type: organism-based; details: anura, in vivo
[5] = Toxicity in tadpole assessed as lethality at 5 ppm measured after 120 hrs; assay type: organism-based; details: anura, in vivo
[6] = Toxicity in tadpole assessed as lethality at 0.3125 ppm measured after 72 hrs; assay type: organism-based; details: anura, in vivo
[7] = Toxicity in tadpole assessed as lethality at 2.5 ppm measured after 12 hrs; assay type: organism-based; details: anura, in vivo
[8] = Toxicity in tadpole assessed as lethality at 2.5 ppm measured after 48 hrs; assay type: organism-based; details: anura, in vivo
[9] = Toxicity in tadpole assessed as lethality at 5 ppm measured after 72 hrs; assay type: organism-based; details: anura, in vivo
[10] = Toxicity in tadpole assessed as lethality at 0.625 ppm measured after 24 hrs; assay type: organism-based; details: anura, in vivo
[11] = Toxicity in tadpole assessed as lethality at 0.625 ppm measured after 72 hrs; assay type: organism-based; details: anura, in vivo
[12] = Toxicity in tadpole assessed as lethality at 5 ppm measured after 48 hrs; assay type: organism-based; details: anura, in vivo
[13] = Toxicity in tadpole assessed as lethality at 0.3125 ppm measured after 24 hrs; assay type: organism-based; details: anura, in vivo
[14] = Toxicity in tadpole assessed as lethality at 10 ppm measured after 48 hrs; assay type: organism-based; details: anura, in vivo
[15] = Toxicity in tadpole assessed as lethality at 10 ppm measured after 24 hrs; assay type: organism-based; details: anura, in vivo
[16] = Toxicity in tadpole assessed as lethality at 0.625 ppm measured after 96 hrs; assay type: organism-based; details: anura, in vivo
[17] = Toxicity in tadpole assessed as lethality at 1.25 ppm measured after 120 hrs; assay type: organism-based; details: anura, in vivo
[18] = Toxicity in tadpole assessed as lethality at 5 ppm measured after 12 hrs; assay type: organism-based; details: anura, in vivo
[19] = Toxicity in tadpole assessed as lethality at 2.5 ppm measured after 96 hrs; assay type: organism-based; details: anura, in vivo
[20] = Toxicity in tadpole assessed as lethality at 10 ppm measured after 72 hrs; assay type: organism-based; details: anura, in vivo
[21] = Toxicity in tadpole assessed as lethality at 0.625 ppm measured after 48 hrs; assay type: organism-based; details: anura, in vivo
[22] = Toxicity in tadpole assessed as lethality at 10 ppm measured after 120 hrs; assay type: organism-based; details: anura, in vivo
[23] = Toxicity in tadpole assessed as lethality at 0.625 ppm measured after 12 hrs; assay type: organism-based; details: anura, in vivo
[24] = Toxicity in tadpole assessed as lethality at 0.3125 ppm measured after 120 hrs; assay type: organism-based; details: anura, in vivo
[25] = Toxicity in tadpole assessed as lethality at 1.25 ppm measured after 24 hrs; assay type: organism-based; details: anura, in vivo
[26] = Toxicity in tadpole assessed as lethality at 1.25 ppm measured after 12 hrs; assay type: organism-based; details: anura, in vivo
[27] = Toxicity in tadpole assessed as lethality at 1.25 ppm measured after 48 hrs; assay type: organism-based; details: anura, in vivo
[28] = Toxicity in tadpole assessed as lethality at 2.5 ppm measured after 120 hrs; assay type: organism-based; details: anura, in vivo
[29] = Toxicity in tadpole assessed as lethality at 5 ppm measured after 96 hrs; assay type: organism-based; details: anura, in vivo
[30] = Toxicity in tadpole assessed as lethality at 0.625 ppm measured after 120 hrs; assay type: organism-based; details: anura, in vivo
[31] = Toxicity in tadpole assessed as lethality at 5 ppm measured after 24 hrs; assay type: organism-based; details: anura, in vivo
[32] = Toxicity in tadpole assessed as lethality at 0.3125 ppm measured after 96 hrs; assay type: organism-based; details: anura, in vivo
[33] = Toxicity in tadpole assessed as lethality at 0.3125 ppm measured after 12 hrs; assay type: organism-based; details: anura, in vivo
[34] = Toxicity in tadpole assessed as lethality at 10 ppm measured after 96 hrs; assay type: organism-based; details: anura, in vivo
[35] = Toxicity in tadpole assessed as lethality at 1.25 ppm measured after 96 hrs; assay type: organism-based; details: anura, in vivo
[36] = Toxicity in tadpole assessed as lethality at 1.25 ppm measured after 72 hrs; assay type: organism-based; details: anura, in vivo

COc1cc(-n2cnc3c(Cl)cc(Cl)cc3c2=O)cc(OC)c1OC
LC90 (Schistosoma japonicum): 3.28 ppm
LC50 (Schistosoma japonicum): 2.49 µg/mL (≈ 6.53 µM)
LC90 (Oncomelania hupensis): 12.95 ppm
LC50 (Oncomelania hupensis): 9.95 µg/mL (≈ 26.1 µM)

COc1cc(-n2cnc3ccc([N+](=O)[O-])cc3c2=O)cc(OC)c1OC
LC90 (Schistosoma japonicum): 1.66 ppm
LC50 (Schistosoma japonicum): 1.26 µg/mL (≈ 3.53 µM)
LC90 (Oncomelania hupensis): 6.61 ppm
LC50 (Oncomelania hupensis): 5.01 µg/mL (≈ 14 µM)

O=c1c2cc(Cl)cc(Cl)c2ncn1-c1ccccc1
LC90 (Schistosoma japonicum): 2.19 ppm
LC50 (Schistosoma japonicum): 1.66 µg/mL (≈ 5.7 µM)
LC90 (Oncomelania hupensis): 8.71 ppm
LC50 (Oncomelania hupensis): 6.61 µg/mL (≈ 22.7 µM)

COc1ccc(-n2cnc3c(Cl)cc(Cl)cc3c2=O)c(OC)c1
LC90 (Schistosoma japonicum): 2.15 ppm
LC50 (Schistosoma japonicum): 1.64 µg/mL (≈ 4.67 µM)
LC90 (Oncomelania hupensis): 8.62 ppm
LC50 (Oncomelania hupensis): 6.55 µg/mL (≈ 18.7 µM)

COc1cc([N+](=O)[O-])ccc1-n1cnc2c(Cl)cc(Cl)cc2c1=O
LC90 (Schistosoma japonicum): 1.72 ppm
LC50 (Schistosoma japonicum): 1.31 µg/mL (≈ 3.58 µM)
LC90 (Oncomelania hupensis): 7.03 ppm
LC50 (Oncomelania hupensis): 5.34 µg/mL (≈ 14.6 µM)

O=c1c2cc([N+](=O)[O-])ccc2ncn1-c1ccccc1
LC90 (Schistosoma japonicum): 2.34 ppm
LC50 (Schistosoma japonicum): 1.78 µg/mL (≈ 6.66 µM)
LC90 (Oncomelania hupensis): 9.33 ppm
LC50 (Oncomelania hupensis): 7.07 µg/mL (≈ 26.5 µM)

Cc1ccc(-n2cnc3ccc(Cl)cc3c2=O)cc1
LC90 (Schistosoma japonicum): 1.35 ppm
LC50 (Schistosoma japonicum): 1.02 µg/mL (≈ 3.77 µM)
LC90 (Oncomelania hupensis): 5.37 ppm
LC50 (Oncomelania hupensis): 4.07 µg/mL (≈ 15 µM)

Cc1ccc(-n2cnc3ccc([N+](=O)[O-])cc3c2=O)cc1
LC90 (Schistosoma japonicum): 1.91 ppm
LC50 (Schistosoma japonicum): 1.45 µg/mL (≈ 5.16 µM)
LC90 (Oncomelania hupensis): 7.58 ppm
LC50 (Oncomelania hupensis): 5.75 µg/mL (≈ 20.4 µM)

Cc1ccc(-n2cnc3ccc(Cl)cc3c2=O)c(C)c1
LC90 (Schistosoma japonicum): 1.45 ppm
LC50 (Schistosoma japonicum): 1.1 µg/mL (≈ 3.86 µM)
LC90 (Oncomelania hupensis): 5.75 ppm
LC50 (Oncomelania hupensis): 4.36 µg/mL (≈ 15.3 µM)

CCCn1cnc2ccc(Cl)cc2c1=O
LC90 (Schistosoma japonicum): >50 ppm
LC50 (Schistosoma japonicum): > 50 µg/mL
LC90 (Oncomelania hupensis): >100 ppm
LC50 (Oncomelania hupensis): > 100 µg/mL

O=c1c2cc(Cl)cc(Cl)c2ncn1-c1ccc([N+](=O)[O-])cc1
LC90 (Schistosoma japonicum): 1.52 ppm
LC50 (Schistosoma japonicum): 1.15 µg/mL (≈ 3.42 µM)
LC90 (Oncomelania hupensis): 6.11 ppm
LC50 (Oncomelania hupensis): 4.65 µg/mL (≈ 13.8 µM)

COc1ccc(-n2cnc3c(Cl)cc(Cl)cc3c2=O)cc1
LC90 (Schistosoma japonicum): 3.31 ppm
LC50 (Schistosoma japonicum): 2.51 µg/mL (≈ 7.82 µM)
LC90 (Oncomelania hupensis): 13.18 ppm
LC50 (Oncomelania hupensis): 10 µg/mL (≈ 31.1 µM)

Cc1ccc(-n2cnc3c(Cl)cc(Cl)cc3c2=O)c(C)c1
LC90 (Schistosoma japonicum): 1.78 ppm
LC50 (Schistosoma japonicum): 1.35 µg/mL (≈ 4.23 µM)
LC90 (Oncomelania hupensis): 7.08 ppm
LC50 (Oncomelania hupensis): 5.37 µg/mL (≈ 16.8 µM)

CN(C)c1ccc(-n2cnc3c(Cl)cc(Cl)cc3c2=O)cc1
LC90 (Schistosoma japonicum): 2.04 ppm
LC50 (Schistosoma japonicum): 1.55 µg/mL (≈ 4.64 µM)
LC90 (Oncomelania hupensis): 8.13 ppm
LC50 (Oncomelania hupensis): 6.17 µg/mL (≈ 18.5 µM)

NCCO.O=C(Nc1ccc([N+](=O)[O-])cc1Cl)c1cc(Cl)ccc1O
LC90 (Schistosoma japonicum): <0.1 ppm
LC50 (Schistosoma japonicum): < 0.1 µg/mL
LC90 (Oncomelania hupensis): <1 ppm
LC50 (Oncomelania hupensis): < 1 µg/mL

O=c1c2cc(Cl)ccc2ncn1-c1ccccc1
LC90 (Schistosoma japonicum): 1.55 ppm
LC50 (Schistosoma japonicum): 1.17 µg/mL (≈ 4.56 µM)
LC90 (Oncomelania hupensis): 6.16 ppm
LC50 (Oncomelania hupensis): 4.68 µg/mL (≈ 18.2 µM)

COc1ccc(-n2cnc3ccc(Cl)cc3c2=O)cc1
LC90 (Schistosoma japonicum): 1.23 ppm
LC50 (Schistosoma japonicum): 0.95 µg/mL (≈ 3.31 µM)
LC90 (Oncomelania hupensis): 5.01 ppm
LC50 (Oncomelania hupensis): 3.8 µg/mL (≈ 13.3 µM)

Cc1ccc(-n2cnc3c(Cl)cc(Cl)cc3c2=O)cc1
LC90 (Schistosoma japonicum): 1.57 ppm
LC50 (Schistosoma japonicum): 1.19 µg/mL (≈ 3.9 µM)
LC90 (Oncomelania hupensis): 6.21 ppm
LC50 (Oncomelania hupensis): 4.71 µg/mL (≈ 15.4 µM)

COc1ccc(-n2cnc3ccc(Cl)cc3c2=O)c(OC)c1
LC90 (Schistosoma japonicum): 1.19 ppm
LC50 (Schistosoma japonicum): 0.91 µg/mL (≈ 2.87 µM)
LC90 (Oncomelania hupensis): 4.97 ppm
LC50 (Oncomelania hupensis): 3.78 µg/mL (≈ 11.9 µM)

O=c1c2cc(Cl)ccc2ncn1C1CCCCC1
LC90 (Schistosoma japonicum): >50 ppm
LC50 (Schistosoma japonicum): > 50 µg/mL
LC90 (Oncomelania hupensis): >100 ppm
LC50 (Oncomelania hupensis): > 100 µg/mL

COc1cc(-n2cnc3ccc(Cl)cc3c2=O)cc(OC)c1OC
mortality at 72 h, 2.5 ppm [1]: 0%
mortality at 12 h, 10 ppm [2]: 0%
mortality at 24 h, 2.5 ppm [3]: 0%
mortality at 48 h, 0.3125 ppm [4]: 0%
mortality at 120 h, 5 ppm [5]: 10%
mortality at 72 h, 0.3125 ppm [6]: 0%
mortality at 12 h, 2.5 ppm [7]: 0%
mortality at 48 h, 2.5 ppm [8]: 0%
mortality at 72 h, 5 ppm [9]: 0%
LC90 (Schistosoma japonicum): 0.89 ppm
LC50 (Schistosoma japonicum): 0.68 µg/mL (≈ 1.96 µM)
mortality at 24 h, 0.625 ppm [10]: 0%
mortality at 72 h, 0.625 ppm [11]: 0%
mortality at 48 h, 5 ppm [12]: 0%
mortality at 24 h, 0.3125 ppm [13]: 0%
mortality at 48 h, 10 ppm [14]: 10%
mortality at 24 h, 10 ppm [15]: 0%
mortality at 96 h, 0.625 ppm [16]: 0%
mortality at 120 h, 1.25 ppm [17]: 0%
mortality at 12 h, 5 ppm [18]: 0%
mortality at 96 h, 2.5 ppm [19]: 0%
mortality at 72 h, 10 ppm [20]: 10%
mortality at 48 h, 0.625 ppm [21]: 0%
mortality at 120 h, 10 ppm [22]: 20%
mortality at 12 h, 0.625 ppm [23]: 0%
mortality at 120 h, 0.3125 ppm [24]: 0%
mortality at 24 h, 1.25 ppm [25]: 0%
mortality at 12 h, 1.25 ppm [26]: 0%
mortality at 48 h, 1.25 ppm [27]: 0%
mortality at 120 h, 2.5 ppm [28]: 0%
mortality at 96 h, 5 ppm [29]: 10%
mortality at 120 h, 0.625 ppm [30]: 0%
mortality at 24 h, 5 ppm [31]: 0%
LC90 (Oncomelania hupensis): 3.55 ppm
LC50 (Oncomelania hupensis): 2.69 µg/mL (≈ 7.76 µM)
mortality at 96 h, 0.3125 ppm [32]: 0%
mortality at 12 h, 0.3125 ppm [33]: 0%
mortality at 96 h, 10 ppm [34]: 20%
mortality at 96 h, 1.25 ppm [35]: 0%
mortality at 72 h, 1.25 ppm [36]: 0%
